In patent US5629173A, “Methods of use of serine protease variants having peptide ligase activity” (priority 1995, dated 1997):
Residues, ends and D or L forms follow the SMILES beside them.

Tested on: not listed separately
Test: Esterase activity, hydrolysis of activated ester substrate
Format: biochemical
Conditions: ratio of the apparent second order rate constants (kcat/KM)
Protocol: The esterase and amidase activities were obtained from initial rate measurements using a Kontron Uvikon 860 spectrophotometer. The assay for esterase activity utilized the substrate s-Ala-Ala-Pro-Phe-Sbz at (25±0.2° C.) in 100 mM Tris-HCl (pH 8.60), 4% (v/v) dimethylsulfoxide, 0.005% (v/v) Tween 80. With the non-cysteine containing proteases, DTNB (Ellman (1959), Arch. Biochem. Biophys., 82, 70-77) was added to a concentration of 37.5 μM to visualize the release of thiolbenzoate upon hydrolysis of the substrate. […] The amidase activities were measured under identical conditions by following the increase in absorbance at 412 nm upon hydrolysis of p-nitroanilide from s-Ala-Ala-Pro-Phe-pNA.

Molecule | esterase/amidase
wild type: wild type subtilisin from Bacillus amyloliquefaciens (subtilisin BPN') (protein, UniProt P00782 108-382, looked up) Subtilisin BPN': AQSVPYGVSQIKAPALHSQGYTGSNVKVAVIDSGIDSSHPDLKVAGGASMVPSETNPFQDNNSHGTHVAGTVAALNNSIGVLGVAPSASLYAVKVLGADGSGQYSWIINGIEWAIANNMDVINMSLGGPSGSAALKAAVDKAVASGVVVVAAAGNEGTSGSSSTVGYPGKYPSVIAVGAVDSSNQRASFSSVGPELDVMAPGVSIQSTLPGNKYGAYNGTSMASPHVAGAAALILSKHPNWTNTQVRSSLENTTTKLGDSFYYGKGLINVQAAAQ | 4.8

Target: T1, peptide ligase acylated by s-Ala-Ala-Pro-Phe (Bacillus amyloliquefaciens, UniProt P00782, P332A/S328C)
T1 construct: made in house
Test: Aminolysis efficiency of di- and tri-amino acid peptide nucleophiles (Table IV)
Format: biochemical
Conditions: not given
Protocol: Enzymatic ligation of peptides were performed at (25±0.2° C.) in 90 mM Tricine (pH 8.0), 2% (v/v) dimethylacetamide, 0.005% (v/v) Tween 80. The comparison between substrates having different leaving groups was simplified by measuring initial reaction rates at a low substrate concentrations (70-75 μM) and at a higher concentration (1.33 mM) where rates are proportional to kcat/KM and the kcat, respectively (Fersht (1977) in Enzyme Structure and Mechanism, W. H. Freeman & Co. USA). The higher substrate concentration may still be below the KM for some of the substrates, so that values for kcat are less accurate. The aminolysis with di- and tripeptides was performed at low peptide concentrations. The aminolysis rate V=kaminolysis [N][E-Ac]/KN, where [N] is the nucleophile concentration, [E-Ac] is the concentration of acyl-enzyme intermediate and KN is the dissociation constant for the binding of the nucleophile to the acyl-enzyme intermediate (Riechmann and Kasche (1985), Biochem. Biophys. Acta., 830, 164-172). Since KN=[N][E-Ac]/[N·E-Ac] a change in [N] will result in a change in [E-Ac] but at low [N], [E-Ac]>>[N·E-Ac] and kaminolysis /KN (the apparent second order rate constants for the reaction between the different nucleophile and the acyl-enzyme intermediate) may be compared. The concentrations of the peptide nucleophiles, and the calibration of the absorbance data for the different ligation products was obtained from amino acid composition analysis. The rates of peptide ligation were measured at four or five different concentrations for each nucleophile.
Ligation reactions were analyzed by taking aliquots at different times and analyzing the peptide products by C-18 reversed phase HPLC. Peptides were eluted in a gradient of acetonitrile/0.1% TFA in water/0.1% TFA and the absorbance at 214 nm monitored. Amino acid composition analysis was used to confirm both the hydrolysis and aminolysis products and to calibrate the absorbance values. The structures of the hydrolysis and aminolysis products (using the dipeptide Ala-Phe-amide as a nucleophile) were confirmed by mass spectrometrical analysis.

T1 sequence (P00782 108-382 S328C/P332A): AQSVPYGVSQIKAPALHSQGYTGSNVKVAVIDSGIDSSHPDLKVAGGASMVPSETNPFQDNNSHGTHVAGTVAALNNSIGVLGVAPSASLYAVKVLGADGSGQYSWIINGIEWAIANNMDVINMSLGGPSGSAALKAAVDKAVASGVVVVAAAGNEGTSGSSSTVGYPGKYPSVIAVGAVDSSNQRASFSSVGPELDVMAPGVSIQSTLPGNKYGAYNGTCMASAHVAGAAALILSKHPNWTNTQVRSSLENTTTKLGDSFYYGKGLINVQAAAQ

Molecule | faster to aminolyze than Arg-Gly [fold]
N=C(N)NCCC[C@H](N)C(=O)N[C@@H](Cc1ccccc1)C(N)=O [RF, Arg-Phe-amide] | ~100

Same assay, conditions: compared with NH2-Gly-Phe-amide

Molecule | quality as ligation substrate, in words
NC(=O)CNC(=O)[C@@H](N)Cc1ccccc1 [FG, Phe-Gly-amide] (H-Phe-Gly-NH2) | extremely poor ligation substrates

Same assay, conditions: peptides amidated at the carboxy terminus; low peptide concentrations; pH 8.0, 25 C

Molecule | apparent second order rate constants for the reaction of the nucleophile with the acylated peptide ligase, compared
N=C(N)NCCC[C@H](N)C(=O)N[C@@H](Cc1ccccc1)C(N)=O [RF, Arg-Phe-amide] | 2.0
C[C@H](NC(=O)CN)C(N)=O [GA, Gly-Ala-amide] (H-Gly-Ala-NH2) | 0.1
C[C@H](N)C(=O)N[C@@H](Cc1ccccc1)C(N)=O [AF, Ala-Phe-amide] | 1.0
NCC(=O)N[C@@H](Cc1ccccc1)C(N)=O [GF, Gly-Phe-amide] (H-Gly-Phe-NH2) | 0.8
NC(=O)CNC(=O)[C@@H](N)Cc1ccccc1 [FG, Phe-Gly-amide] (H-Phe-Gly-NH2) | 0.006
CC(C)C[C@H](N)C(=O)N[C@@H](Cc1ccccc1)C(=O)N[C@@H](CC(=O)O)C(N)=O [LFD, Leu-Phe-Asp-amide] (H-Leu-Phe-Asp-NH2) | 0.3
CC(C)C[C@H](N)C(=O)N[C@@H](Cc1ccccc1)C(N)=O [LF, Leu-Phe-amide] (H-Leu-Phe-NH2) | 0.3
N=C(N)NCCC[C@H](N)C(=O)NCC(N)=O [RG, Arg-Gly-amide] (H-Arg-Gly-NH2) | 0.04
CC(C)C[C@H](NC(=O)CN)C(N)=O [GL, Gly-Leu-amide] | 0.3
C[C@H](N)C(=O)N[C@@H](Cc1ccccc1)C(=O)N[C@@H](C)C(N)=O [AFA, Ala-Phe-Ala-amide] (H-Ala-Phe-Ala-NH2) | 2.0
